# Test results: US20210113505A1, “METHODS OF TREATING HAIR RELATED CONDITIONS” (Nogra Pharma Limited, priority 2012, published 2021)
# “Also recorded” adds a separate entry of the source.
# Assays:
# Assay type in all cases: cell-based
# [1] = tested on: human scalp hair follicles; test: Hair shaft elongation of organ-cultured hair follicles
# Experimental: (§1) Details regarding tissue specimen origin used in the present example are as described in Example 2 above.
# Hair shaft length measurements of HFs were performed on individual HFs using a Zeiss inverted binocular microscope with an eyepiece measuring graticule.
# (§2) To evaluate apoptotic cells in colocalization with a proliferation marker Ki-67, a Ki-67/terminal dUTP nick-end labeling (TUNEL) double-staining method was used. Cryostat sections were fixed in paraformaldehyde and ethanol-acetic acid (2:1) and labeled with a digoxigenin-deoxy-UTP (ApopTag fluorescein in situ apoptosis detection kit; Intergen, Purchase, N.Y.) in the presence of terminal deoxynucleotidyl transferase, followed by incubation with a mouse anti-Ki-67 antiserum (1:20 in PBS overnight at 4 C; Dako, Glostrup, Denmark). TUNEL-positive cells were visualized by an antidigoxigenin fluorescein isothiocyanate-conjugated antibody (ApopTag kit), whereas Ki-67 was detected by a rhodamine-labeled goat antimouse antibody (Jackson ImmunoResearch, West Grove, Pa.). Negative controls were performed by omitting terminal deoxynucleotidyl transferase and the Ki-67 antibody. Counterstaining was performed with 4′,6-diamidino-2-phenylindole (DAPI) (Roche Molecular Biochemicals GmbH, Mannheim, Germany). Quantitative immunohistomorphometry was performed; Ki-67-, TUNEL-, or DAPI-positive cells were counted in a previously defined reference region of the HF matrix, and the percentage of Ki-67/TUNEL-positive cells were determined. Statistical analysis was performed using a two-tailed Student's t-test for unpaired samples. For meta-analysis purposes, a total of six assays (each with HFs from a different female individual) were run. In order to avoid data distortion by individual experiments, rigid exclusion criteria were defined that allowed to exclude one individual experiment (out of 5-6) per read-out parameter. Since these exclusion criteria differed for each study parameter, different experiments (i.e. one out of 6) were excluded for each assay parameter. […]
# [2] = tested on: K19 expression; test: K19 quantitative immunohistochemistry in organ-cultured human scalp hair follicles; details: human scalp HF organ culture; for number of K19-positive cells relative to control: cells in the ORS
# Experimental: (§3) Normal human scalp skin was obtained from 6 women undergoing routine face-lift surgery after informed consent. All experiments were performed according to Helsinki guidelines, with appropriate ethics committee approval.
# (§4) Normally pigmented anagen VI hair follicles (HFs) (grey/white HFs were excluded from the study) were microdissected from normal human scalp skin and organ cultured following the Philpott model. Compound A or vehicle was administered once for each change of medium (i.e. every 48 h/72 h).
# A previously described protocol was used to investigate K19 expression (Kloepper et al., 2008). Briefly, acetone-fixed cryosections were pre-treated with goat serum (10% in Tris-buffered saline, Dako). The sections were incubated first with primary antibodies against K19 (mouse anti-human: K19-1:10; overnight, at 4° C.; PROGEN, Heidelberg, Germany;) and then with FITC-labeled goat anti-mouse (1:200 in TBS, for 45 min, RT, Jackson ImmunoResearch) immunoglobulins as secondary antibodies. Counterstaining was performed with DAPI (Boehringer Mannheim, Mannheim, Germany). The intensity of this immunostaining was quantified by ImageJ software (National Institutes of Health). The staining intensity of defined reference regions in the HF was measured and compared between control and Compound A-treated groups. The percentage of K19-positive cells in comparison to the total amount of cells in the ORS was calculated.
# Statistical analysis was performed using a two-tailed Student's t-test for unpaired samples. For meta-analysis purposes, a total of six assays (each with HFs from a different female individual) were run. […] In order to avoid data distortion by individual experiments, rigid exclusion criteria were defined that allowed to exclude one individual experiment (out of 5-6) per read-out parameter. Since these exclusion criteria differed for each study parameter, different experiments (i.e. one out of 6, and one out of 5 in the case of keratin 19 analysis) were excluded for each assay parameter. […]
# [3] = tested on: human scalp hair follicles; test: HF cycle staging (anagen/catagen) of organ-cultured hair follicles; details: all concentrations, pooled data
# Experimental: as §1
# HF cycle staging was carried out according to previously defined morphological criteria, and the percentage of HFs in anagen and early, mid, or late catagen was determined.
# To evaluate apoptotic cells in colocalization with a proliferation marker Ki-67, a Ki-67/terminal dUTP nick-end labeling (TUNEL) double-staining method was used. […] TUNEL-positive cells were visualized by an antidigoxigenin fluorescein isothiocyanate-conjugated antibody (ApopTag kit), whereas Ki-67 was detected by a rhodamine-labeled goat antimouse antibody (Jackson ImmunoResearch, West Grove, Pa.). […] Quantitative immunohistomorphometry was performed; Ki-67-, TUNEL-, or DAPI-positive cells were counted in a previously defined reference region of the HF matrix, and the percentage of Ki-67/TUNEL-positive cells were determined. […] In order to avoid data distortion by individual experiments, rigid exclusion criteria were defined that allowed to exclude one individual experiment (out of 5-6) per read-out parameter. […]
# [4] = tested on: human scalp hair follicles; test: LDH measurement in supernatant of hair follicle organ culture (cytotoxicity); details: for LDH activity in the supernatant: 0.1 mM dose, day 6, pooled data
# Experimental: as §1
# LDH activity in the supernatant can serve as an indicator of cytotoxicity and was measured following the manufacturer's instructions (Cytotoxicity Detection Kit; Roche, Mannheim, Germany). The absorbance of the samples was measured at 490 nm using an ELISA plate-reader.
# as §2, with “parameter.” for “parameter. Since these exclusion criteria differed for each study parameter, different experiments (i.e. one out of 6) were excluded for each assay parameter.”
# [5] = tested on: keratin K15 expression; test: K15 quantitative immunohistochemistry in organ-cultured human scalp hair follicles; details: for Keratin-15 immunoreactivity: all concentrations tested, human anagen VI scalp HF organ culture, vs vehicle
# Experimental: as §3, §4
# To investigate keratin K15 expression, the tyramide signal amplification method was used as previously described (Kloepper et al., 2008). Briefly, acetone fixed cryosections were washed three times for 5 min using TNT (Tris-HCL NaCl Tween) buffer (0.1 mol/l Tris-HCl, pH 7.5; containing 0.15 mol/l NaCl and 0.05% Tween 20). Next, horseradish peroxidase was blocked by washing with 3% H2O2 in phosphate-buffered saline (PBS) for 15 min. Preincubation was performed with the incubation of avidin and biotin for 15 min and 5% goat normal serum in TNT for 30 min with washing steps in between. Mouse anti-human K15 (clone LHK15, Chemicon, Billerica, USA) was diluted in TNT and incubated overnight at 4° C. followed by a biotinylated secondary antibody goat anti-mouse (1:200 in TNT) for 45 min at RT. Next, streptavidin horseradish peroxidase (TSA kit; Perkin-Elmer, Boston, Mass., USA) was administered (1:100 in TNT) for 30 min at RT. […] The intensity of the immunostaining was quantified by ImageJ software (National Institutes of Health). The staining intensity of defined reference regions in the HF was measured and compared between control and N Compound A-treated groups. The percentage of K15-positive cells in comparison to the total amount of cells in the ORS was calculated.
# Statistical analysis was performed using a two-tailed Student's t-test for unpaired samples. […] In order to avoid data distortion by individual experiments, rigid exclusion criteria were defined that allowed to exclude one individual experiment (out of 5-6) per read-out parameter. […]
# [6] = listed as N-acetyl-(R)-(−)-3-(4-aminophenyl)-2-methoxypropionic acid
smiles,measurement,setting,value
"CO[C@H](Cc1ccc(NC(C)=O)cc1)C(=O)O [Compound A, N-acetyl-(R)-(−)-3-(4-aminophenyl)-2-methoxypropionic acid]",hair shaft elongation,"[1]; high dose (1 mM), day 6, pooled data","slightly, but significantly, inhibited; also recorded: inhibits"
same,hair shaft elongation,"[1]; high dose (1 mM), day 6, pooled data, listed as N-acetyl-(R)-(−)-3-(4-aminophenyl)-2-methoxypropionic acid",inhibition
same,hair shaft elongation,[1]; lower concentrations (below 1 mM),did not have an effect
same,Keratin 19 immunoreactivity,"[2]; all concentrations tested, vs vehicle",strongly stimulated
same,number of K19-positive cells relative to control,[2],stimulating effect
same,number of K19-positive cells relative to control,[2]; [6],increased numbers
same,hair cycle effect (catagen induction),[3],induced catagen; also recorded: catagen-inducing effect
same,hair cycle effect (catagen induction),[3]; [6],trend toward catagen
same,LDH activity in the supernatant,[4],slight increase
same,LDH activity in the supernatant,[4]; [6],increase
same,Compound-associated HF toxicity,"[4]; under assay conditions, from LDH activity","very low, if any"
same,Keratin-15 immunoreactivity,[5],strongly stimulated
same,Keratin-15 immunoreactivity,[5]; [6],stimulation
same,number of K15-positive cells,"[5]; human scalp HF organ culture, cells in the ORS",did not increase
